Assay results published in PubChem BioAssay AID1919010 (Molecular Pharmacology Branch, DTP, NCI, 2023).
Several values for one entry are separate records, joined by “and”; a condition that tells them apart may be missing. Identical values can stand only once.

Test system: Hs578T complex spheroid growth, percent test/control
Test: Anticancer human tumor Hs578T cell line growth inhibition [AhR];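 also: luminescent viability signal as a proxy for spheroid growth; spheroids exposed to agents for one week after three days of growth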
Details: for viability, T/C: stronger effect = lower value
Excerpt: Multicellular complex tumor spheroid response to aryl hydrocarbon receptor antagonists in combination with a variety of drugs and investigational agents in selected tumor cell lines
The current study was undertaken to assess response to aryl hydrocarbon receptor antagonists in combination with standard-of-care drugs and investigational agents in solid tumor complex spheroid models. Complex spheroids include a stromal component modeled by human endothelial cells (HUVEC) and fibroblasts modeled by human mesenchymal stem cells (MSCs). The concentration ranges selected for each drug and investigational agent were based upon clinically achievable concentrations if the clinical Cmax of the agent was known.
Compounds. The drugs and investigational agents: BAY 2416964 (NSC825713), GNF351 (NSC835774), CH-223191 (NSC835775), CPI-455 (NSC825282), aza-TdCyd (NSC777586), decitabine (NSC127716), belinostat (NSC758774), entinostat (NSC756642), pevonedistat (NSC761192), tazemetostat (NSC777109), talazoparib (NSC765396), olaparib (NSC753686), selinexor (NSC780203), nedisertib (M3814, NSC802822), bortezomib (NSC756655), venetoclax (NSC766270), doxorubicin (NSC123127), elimusertib (BAY189344, NSC800525), ceralasertib (AZD6738, NSC777638), TAK-243 (NSC785004), alisertib (NSC759677), etoposide (NSC141540), topotecan (NSC609699), eribulin (NSC707389), gemcitabine (NSC613327), carboplatin (NSC241240), cisplatin (NSC119875), and SN-38 (NSC673596) were obtained from the National Cancer Institute (NCI) Developmental Therapeutics Program Chemical Repository (32). The FDA-approved anticancer drug set is available from the Developmental Therapeutics Program at https://dtp.cancer.gov/organization/dscb/obtaining/available plates.htm. […] The stock solutions were prepared in dimethyl sulfoxide (DMSO, Sigma-Aldrich, St. Louis, MO, cat. D2650), except for the platinum compounds which were prepared in saline (Quality Biological, Gaithersburg, MD, cat. 114-055-101), at 800-fold the tested concentration and stored at -70 degrees C prior to their use. All drugs and investigational agents were tested over a range starting from a high concentration at or near the clinical Cmax and decreasing in half-log increments. If the clinical Cmax for an agent had not been determined, the highest concentration tested was 10 microM (Table 1).
Cell Culture. All cells were maintained in an incubator at 37 degrees C and 5% CO2 with 95% humidity. The PDC lines were cultured according to standard operating procedures established by the NCI PDMR (https://pdmr.cancer.gov). Briefly, all PDCs were thawed and cultured in Matrigel-coated flasks prepared with a working solution of 1X Ham's F-12 nutrient mix, without supplementation (Invitrogen, Waltham, MA, cat. 11765054), 100 U/mL penicillin-streptomycin (Invitrogen, cat. 15140122), and 2.5% Matrigel (Corning Inc., Corning, NY, cat. 354248) for the first three passages. All PDCs were cultured in complete DMEM/F-12 media containing advanced DMEM/F-12 (Invitrogen, cat. 12634028), 4.9% defined fetal bovine serum, heat inactivated (HyClone Laboratories Inc., Logan, UT, cat. SH30070.03HI), 389 ng/mL hydrocortisone (Sigma-Aldrich, cat. H4001), 9.7 ng/mL human EGF recombinant protein (Invitrogen, cat. PHG0313), 23.4 microg/mL adenine (Sigma-Aldrich, cat. A2786), 97.3 U/mL penicillin-streptomycin (Invitrogen, cat. 15140122), 1.9 mM L-glutamine (Invitrogen, cat. 25030081), and 9.7 microM Y-27632 dihydrochloride (Tocris Bioscience, Bristol, United Kingdom, cat. 1254). The PDCs were cultured in complete DMEM/F12 media without 10 microM Y-27632 dihydrochloride for at least two passages prior to the screen. The established cell lines NCI-H1341 and […] were cultured in DMEM/F-12, HEPES (Invitrogen, cat. 11330032), 5% defined fetal bovine serum (HyClone Laboratories Inc., cat. SH30070.03), ITS premix universal culture supplement [insulin (5 microg/mL), transferrin (5 microg/mL), and selenious acid (5 ng/mL)] […]

[1] = curve of first compound, second compound 0.1 µM
[2] = curve of first compound, second compound 0.316 µM
[3] = curve of first compound, second compound 1 µM
[4] = curve of first compound, second compound 3.16 µM
[5] = curve of first compound, second compound 10 µM
[6] = second compound 0.1 µM, first compound 0.0316 µM
[7] = second compound 0.1 µM, first compound 0.1 µM
[8] = second compound 0.1 µM, first compound 0.316 µM
[9] = second compound 0.1 µM, first compound 1 µM
[10] = second compound 0.1 µM, first compound 3.16 µM
[11] = second compound 0.1 µM, first compound 10 µM
[12] = second compound 0.316 µM, first compound 0.0316 µM
[13] = second compound 0.316 µM, first compound 0.1 µM
[14] = second compound 0.316 µM, first compound 0.316 µM
[15] = second compound 0.316 µM, first compound 1 µM
[16] = second compound 0.316 µM, first compound 3.16 µM
[17] = second compound 0.316 µM, first compound 10 µM
[18] = second compound 1 µM, first compound 0.0316 µM
[19] = second compound 1 µM, first compound 0.1 µM
[20] = second compound 1 µM, first compound 0.316 µM
[21] = second compound 1 µM, first compound 1 µM
[22] = second compound 1 µM, first compound 3.16 µM
[23] = second compound 1 µM, first compound 10 µM
[24] = second compound 3.16 µM, first compound 0.0316 µM
[25] = second compound 3.16 µM, first compound 0.1 µM
[26] = second compound 3.16 µM, first compound 0.316 µM
[27] = second compound 3.16 µM, first compound 1 µM
[28] = second compound 3.16 µM, first compound 3.16 µM
[29] = second compound 3.16 µM, first compound 10 µM
[30] = second compound 10 µM, first compound 0.0316 µM
[31] = second compound 10 µM, first compound 0.1 µM
[32] = second compound 10 µM, first compound 0.316 µM
[33] = second compound 10 µM, first compound 1 µM
[34] = second compound 10 µM, first compound 3.16 µM
[35] = second compound 10 µM, first compound 10 µM

With CCN(c1cc(-c2ccc(CN3CCOCC3)cc2)cc(C(=O)NCc2c(C)cc(C)[nH]c2=O)c1C)C1CCOCC1 + Cc1cncc(-c2nc(NCCc3c[nH]c4ccccc34)c3ncn(C(C)C)c3n2)c1 the IC50 [1] was > 3000 nM, the IC50 [2] was > 3000 nM and the IC50 [3] was > 3000 nM. For the same compound, the IC50 [4] was < 9.49 nM, the IC50 [5] was < 9.49 nM and the viability, T/C (second compound 0.1 µM, first compound 0.00949 µM) was 111%. The viability, T/C (second compound 0.1 µM, first compound 0.03 µM) was 95.9%, the viability, T/C (second compound 0.1 µM, first compound 0.0949 µM) was 101% and the viability, T/C (second compound 0.1 µM, first compound 0.3 µM) was 107%. It also gave a viability, T/C (second compound 0.1 µM, first compound 0.949 µM) of 94.4%, a viability, T/C (second compound 0.1 µM, first compound 3 µM) of 106% and a viability, T/C (second compound 0.316 µM, first compound 0.00949 µM) of 111%. The viability, T/C (second compound 0.316 µM, first compound 0.03 µM) was 99.9%, the viability, T/C (second compound 0.316 µM, first compound 0.0949 µM) was 106% and the viability, T/C (second compound 0.316 µM, first compound 0.3 µM) was 96.6%. The viability, T/C (second compound 0.316 µM, first compound 0.949 µM) was 99.5%, the viability, T/C (second compound 0.316 µM, first compound 3 µM) was 90.7% and the viability, T/C (second compound 1 µM, first compound 0.00949 µM) was 103%. For the same compound, the viability, T/C (second compound 1 µM, first compound 0.03 µM) was 102%, the viability, T/C (second compound 1 µM, first compound 0.0949 µM) was 101% and the viability, T/C (second compound 1 µM, first compound 0.3 µM) was 93.5%. For the same compound, the viability, T/C (second compound 1 µM, first compound 0.949 µM) was 105%, the viability, T/C (second compound 1 µM, first compound 3 µM) was 93.3% and the viability, T/C (second compound 3.16 µM, first compound 0.00949 µM) was 49.8%. It also gave a viability, T/C (second compound 3.16 µM, first compound 0.03 µM) of 46.4%, a viability, T/C (second compound 3.16 µM, first compound 0.0949 µM) of 51.5% and a viability, T/C (second compound 3.16 µM, first compound 0.3 µM) of 48%. The viability, T/C (second compound 3.16 µM, first compound 0.949 µM) was 46%, the viability, T/C (second compound 3.16 µM, first compound 3 µM) was 51.7% and the viability, T/C (second compound 10 µM, first compound 0.00949 µM) was 6.41%. For the same compound, the viability, T/C (second compound 10 µM, first compound 0.03 µM) was 5.56%, the viability, T/C (second compound 10 µM, first compound 0.0949 µM) was 7.45% and the viability, T/C (second compound 10 µM, first compound 0.3 µM) was 5.08%. It also gave a viability, T/C (second compound 10 µM, first compound 0.949 µM) of 5.95% and a viability, T/C (second compound 10 µM, first compound 3 µM) of 3.67%.
In the case of CC(C)c1c(-c2ccccc2)nc2c(C#N)c[nH]n2c1=O + Cc1cncc(-c2nc(NCCc3c[nH]c4ccccc34)c3ncn(C(C)C)c3n2)c1, the IC50 [1] is reported as > 10000 nM, the IC50 [2] is reported as > 10000 nM and the IC50 [3] is reported as > 10000 nM. For the same compound, the IC50 [4] was > 10000 nM, the IC50 [5] was < 31.6 nM and the viability, T/C [6] was 114%. For the same compound, the viability, T/C [7] was 113%, the viability, T/C [8] was 110% and the viability, T/C [9] was 108%. The viability, T/C [10] was 109%, the viability, T/C [11] was 96.4% and the viability, T/C [12] was 112%. It also gave a viability, T/C [13] of 104%, a viability, T/C [14] of 113% and a viability, T/C [15] of 103%. It also gave a viability, T/C [16] of 109%, a viability, T/C [17] of 107% and a viability, T/C [18] of 99.6%. The viability, T/C [19] was 101%, the viability, T/C [20] was 107% and the viability, T/C [21] was 100%. The viability, T/C [22] was 102%, the viability, T/C [23] was 99.5% and the viability, T/C [24] was 61.3%. It also gave a viability, T/C [25] of 65.5%, a viability, T/C [26] of 68.6% and a viability, T/C [27] of 62.9%. For the same compound, the viability, T/C [28] was 55.8%, the viability, T/C [29] was 66.9% and the viability, T/C [30] was 4.95%. The viability, T/C [31] was 6.12%, the viability, T/C [32] was 4.81% and the viability, T/C [33] was 4.87%. The viability, T/C [34] was 5.51% and the viability, T/C [35] was 7.39%.
COc1cccc2c1C(=O)c1c(O)c3c(c(O)c1C2=O)CC(O)(C(=O)CO)CC3OC1CC(N)C(O)C(C)O1 (configuration not stated) + CC(CO)NC(=O)c1cc(-c2ccc(Cl)cc2)nn(-c2cnn(C)c2)c1=O was tested, and the IC50 [1] was 469 nM, the IC50 [2] was 502 nM and the IC50 [3] was 497 nM. It also gave an IC50 [4] of 398 nM, an IC50 [5] of 374 nM and a viability, T/C [6] of 96.3%. The viability, T/C [7] was 86.2%, the viability, T/C [8] was 64.6% and the viability, T/C [9] was 23.9%. For the same compound, the viability, T/C [10] was 3.62%, the viability, T/C [11] was 3.54% and the viability, T/C [12] was 78.7%. The viability, T/C [13] was 84.3%, the viability, T/C [14] was 66.8% and the viability, T/C [15] was 24.1%. For the same compound, the viability, T/C [16] was 2.56%, the viability, T/C [17] was 2.88% and the viability, T/C [18] was 92%. The viability, T/C [19] was 88.1%, the viability, T/C [20] was 67.8% and the viability, T/C [21] was 22.7%. The viability, T/C [22] was 3.26%, the viability, T/C [23] was 2.93% and the viability, T/C [24] was 88.6%. The viability, T/C [25] was 91%, the viability, T/C [26] was 58.1% and the viability, T/C [27] was 14.6%. For the same compound, the viability, T/C [28] was 2.55%, the viability, T/C [29] was 3.04% and the viability, T/C [30] was 78.3%. It also gave a viability, T/C [31] of 86.4%, a viability, T/C [32] of 57.8% and a viability, T/C [33] of 4.9%. For the same compound, the viability, T/C [34] was 2.84% and the viability, T/C [35] was 2.14%.
With O=C(c1cc(Cc2n[nH]c(=O)c3ccccc23)ccc1F)N1CCN(C(=O)C2CC2)CC1 the viability, T/C (compound 0.0316 µM) was 104% and 103% and 102%, the viability, T/C (compound 0.1 µM) was 108% and 102% and 106% and the viability, T/C (compound 0.316 µM) was 109% and 98.8% and 95%. For the same compound, the viability, T/C (compound 1 µM) was 104% and 103% and 88.4%, the viability, T/C (compound 3.16 µM) was 90.8% and 91.2% and 88.4% and the viability, T/C (compound 10 µM) was 82.5% and 75.1% and 82.1%. For the same compound, the IC50 (curve of compound) was > 10000 nM.
